Measurements reported in patent US8691816B2, “Pyrrole inhibitors of S-nitrosoglutathione reductase as therapeutic agents” (N30 Pharmaceuticals, Inc., priority 2008, dated 2014).
Where two headings read alike, the source gives them in different places.

Legend:
[1] = test system: OVA sensitized mice, methacholine-induced bronchial hyper-reactivity; experiment: GSNOR inhibition assay in an in vivo animal model: OVA mouse model of asthma, methacholine challenge, Penh by whole body plethysmograph; conditions: 1 mg/kg, 10 mg/kg or 30 mg/kg intravenously 24 hours prior
Description: In an effort to determine if similar observations would manifest if GSNOR were inhibited pharmacologically by a GSNOR inhibitor, an OVA mouse model (i.e., the wild-type model of Que et al.) was used. In this study, OVA sensitized mice were administered 1 mg/kg, 10 mg/kg or 30 mg/kg of Compound 1 intravenously at 24 hours prior to being placed in a whole body plethysmograph (Buxco Research Systems, Wilmington, N.C.) and provided with fresh air.
Subject animals were then challenged with an aerosol of increasing dosages of the bronchoconstrictive agent methacholine, a pharmacologic agent commonly used in determining the degree of bronchial hyper-reactivity in experimental subjects. In this study mice were exposed to an increasing concentration of methacholine, each dose being presented for 3 minutes, during which time readings were taken. Doses of methacholine were 0 mg/ml, 5 mg/ml, 20 mg/ml, and 50 mg/ml. The degree of bronchial hyper-reactivity was measured as the ‘Enhanced Pause’ (Penh), a unit-less index of airway hyper-reactivity (Dohi et al., Lab Invest. 79(12):1559-1571, 1999).

[2] = test system: mouse model of ovalbumin (OVA)-induced asthma; experiment: Experimental asthma model: methacholine (MCh)-induced bronchoconstriction/airway hyper-reactivity (Penh) in ovalbumin (OVA)-induced asthma; type: in vivo; conditions: single IV dose 0.1 mg/kg, 48 h prior to MCh, read-out: area under the curve (AUC) for Penh response as percent of vehicle control
[3] = test system: mouse model of ovalbumin (OVA)-induced asthma; experiment: as above; type: in vivo; conditions: for response vs control in vivo at 0.1 mg/kg: single IV dose 0.1 mg/kg; for efficacy against experimental asthma (attenuation of MCh induced bronchoconstriction): administered intravenously (IV); for response vs control in vivo at 1 mg/kg: single IV dose 1 mg/kg; for response vs control in vivo at 30 mg/kg: single oral dose 30 mg/kg; for efficacy against experimental asthma (attenuation of MCh induced bronchoconstriction and pulmonary inflammation): administered intravenously (IV) or orally; for response vs control in vivo at 10 mg/kg: single IV dose 10 mg/kg
Description: (§1) A mouse model of ovalbumin (OVA)-induced asthma was used to screen GSNOR inhibitors for efficacy against methacholine (MCh)-induced bronchoconstriction/airway hyper-reactivity. This is a widely used and well characterized model that presents with an acute, allergic asthma phenotype with similarities to human asthma. Efficacy of GSNOR inhibitors were assessed using a prophylactic protocol in which GSNOR inhibitors were administered prior to challenge with MCh. Bronchoconstriction in response to challenge with increasing doses of MCh was assessed using whole body plethysmography (Penh; Buxco). The amount of eosinophil infiltrate into the bronchioalveolar lavage fluid (BALF) was also determined as a measure of lung inflammation. The effect of GSNOR inhibitors were compared to vehicles and to Combivent (inhaled; IH) as the positive control.
(§2) OVA (500 μg/ml) in PBS was mixed with equal volumes of 10% (w/v) aluminum potassium sulfate in distilled water and incubated for 60 min. at room temperature after adjustment to pH 6.5 using 10 N NaOH. After centrifugation at 750×g for 5 min, the OVA/alum pellet was resuspended to the original volume in distilled water. Mice received an intraperitoneal (IP) injection of 100 μg OVA (0.2 mL of 500 μg/mL in normal saline) complexed with alum on day 0. Mice were anesthetized by IP injection of a 0.2-mL mixture of ketamine and xylazine (0.44 and 6.3 mg/mL, respectively) in normal saline and were placed on a board in the supine position. Two hundred fifty micrograms (100 μl of a 2.5 mg/ml) of OVA (on day 8) and 125 μg (50 μl of 2.5 mg/ml) OVA (on days 15, 18, and 21) were placed on the back of the tongue of each animal.
In vivo airway responsiveness to methacholine was measured 24 h after the last OVA challenge in conscious, freely moving, spontaneously breathing mice with whole body plethysmography using a Buxco chamber (Wilmington, N.C.). Mice were challenged with aerosolized saline or increasing doses of methacholine (5, 20 and 50 mg/mL) generated by an ultrasonic nebulizer for 2 min. The degree of bronchoconstriction was expressed as enhanced pause (Penh), a calculated dimensionless value, which correlates with the measurement of airway resistance, impedance, and intrapleural pressure in the same mouse. Penh readings were taken and averaged for 4 min. after each nebulization challenge. Penh was calculated as follows: Penh=[(Te/Tr−1)×(PEF/PIF)], where Te is expiration time, Tr is relaxation time, PEF is peak expiratory flow, and PIF is peak inspiratory flow×0.67 coefficient. The time for the box pressure to change from a maximum to a user-defined percentage of the maximum represents the relaxation time. The Tr measurement begins at the maximum box pressure and ends at 40%.
(§3) GSNOR inhibitors were reconstituted in phosphate buffered saline (PBS), pH 7.4, at concentrations ranging from 0.00005 to 3 mg/mL. GSNOR inhibitors were administered to mice (10 mL/kg) as a single dose either intravenously (IV) or orally via gavage. Dosing was performed from 30 min. to 24 h prior to MCh challenge. Effect of GSNOR inhibitors were compared to PBS vehicle dosed in the same manner.
Combivent was used as the positive control in all studies. Combivent (Boehringer Ingelheim) was administered to the lung using the inhaler device supplied with the product, but adapted for administration to mice, using a pipet tip. Combivent was administered 48 h, 24 h, and 1 h prior to MCh challenge. Each puff (or dose) of Combivent provided a dose of 18 μg ipatropium bromide (IpBr) and 103 μg albuterol sulfate or approximately 0.9 mg/kg IpBr and 5 mg/kg albuterol.
(§4) Area under the curve values for Penh across baseline, saline, and increasing doses of MCh challenge were calculated using GraphPad Prism 5.0 (San Diego, Calif.) and expressed as a percent of the respective (IV or orally administered) vehicle control.

[4] = test system: mouse model of ovalbumin (OVA)-induced asthma; experiment: Experimental asthma model: eosinophil infiltrate in bronchioalveolar lavage fluid (BALF); type: in vivo
Description: as §1, §2
After measurement of airway hyper-reactivity, the mice were exsanguination by cardiac puncture, and then BALF was collected from either both lungs or from the right lung after tying off the left lung at the mainstem bronchus. Total BALF cells were counted from a 0.05 mL aliquot, and the remaining fluid is centrifuged at 200×g for 10 min at 4° C. Cell pellets were resuspended in saline containing 10% BSA with smears made on glass slides. Eosinophils were stained for 5 min. with 0.05% aqueous eosin and 5% acetone in distilled water, rinsed with distilled water, and counterstained with 0.07% methylene blue.
as §3
as §4, with “control. Statistical differences among treatment groups and the respective vehicle control group within each study were calculated using one-way ANOVA, Dunnetts (JMP 8.0, SAS Institute, Cary, N.C.).” for “control.”

[5] = Mus musculus, 24 h prior to MCh, read-out: area under the curve (AUC) for Penh response as percent of vehicle control
[6] = single IV dose 1 mg/kg, 24 h prior to MCh
[7] = single oral dose 30 mg/kg, 24 h prior to MCh

Structure (SMILES)	efficacy against experimental asthma (attenuation of MCh induced bronchoconstriction) [3]	response vs control in vivo at 1 mg/kg [3, 5]	reduction of eosinophil infiltration into the BALF [4, 6]	response vs control in vivo at 30 mg/kg [3, 5]	efficacy against experimental asthma (attenuation of MCh induced bronchoconstriction and pulmonary inflammation) [3]	reduction of eosinophil infiltration into the BALF [4, 7]	other results
Cc1cc(C(N)=O)ccc1-n1c(CCC(=O)O)ccc1-c1ccc(-n2ccnc2)cc1 [Compound 1, 3-(5-(4-(1H-imidazol-1-yl)phenyl)-1-(4-carbamoyl-2-methyl-phenyl)-1H-pyrrol-2-yl)propanoic acid]	efficacious	–	–	–	–	–	broncho-constrictive responses (Penh) to methacholine challenge compared with vehicle-only dosed animals [1]: lower broncho-constrictive responses; response vs control in vivo at 0.1 mg/kg [2]: 64.4 ± 55%; ED50 ([3]; Mus musculus, iv, read-out: ED50, dose demonstrating 50% reduction in Penh response): 0.011 ± 0.003 mg/kg; response vs control in vivo at 0.01 mg/kg ([3]; Mus musculus, single IV dose 0.01 mg/kg, 24 h prior to MCh, read-out: area under the curve (AUC) for Penh response as percent of vehicle control): 42.1 ± 2.8%; response vs control in vivo at 0.1 mg/kg ([3]; Mus musculus, 1 h prior to MCh, read-out: area under the curve (AUC) for Penh response as percent of vehicle control): 76.4 ± 6.6%; reduction of eosinophil infiltration into the BALF ([4]; single IV dose 0.01 mg/kg, 24 h prior to MCh): 98%
Cc1cc(C(N)=O)ccc1-n1c(CCC(=O)O)ccc1-c1ccc(-n2ccnc2C)cc1 [Compound 3, 3-(1-(4-carbamoyl-2-methyl-phenyl)-5-(4-(2-methyl-1H-imidazol-1-yl)phenyl)-1H-pyrrol-2-yl)propanoic acid]	efficacious	71 ± 8.6%	46%	–	–	–	–
COc1ccc(-c2ccc(CCC(=O)O)n2-c2ccc(C(N)=O)cc2C)cc1 [Compound 9, 3-(1-(4-carbamoyl-2-methylphenyl)-5-(4-methoxy-phenyl)-1H-pyrrol-2-yl)propanoic acid]	–	65.3 ± 5.9%	92%	24.6 ± 3%	efficacious	100%	–
Cc1cc(C(N)=O)ccc1-n1c(CCC(=O)O)ccc1-c1ccc(Br)cc1 [Compound 12, 3-(5-(4-bromophenyl)-1-(4-carbamoyl-2-methylphenyl)-1H-pyrrol-2-yl)propanoic acid]	efficacious	–	–	–	–	–	–
COc1cc(Cl)ccc1-c1ccc(CCC(=O)O)n1-c1ccc(C(N)=O)cc1C [Compound 116, 3-(1-(4-carbamoyl-2-methylphenyl)-5-(4-chloro-2-methoxy-phenyl)-1H-pyrrol-2-yl)propanoic acid]	–	60.2 ± 7.9%	100%	26.7 ± 1.4%	efficacious	100%	response vs control in vivo at 10 mg/kg ([3]; Mus musculus, 0.5 h, 30 min. prior to MCh, read-out: area under the curve (AUC) for Penh response as percent of vehicle control): 35.2 ± 9.3%; response vs control in vivo at 0.1 mg/kg [3, 5]: 64.2 ± 7.6%; response vs control in vivo at 10 mg/kg [3, 5]: 40.7 ± 2.4%; reduction of eosinophil infiltration into the BALF ([4]; single IV dose 0.1 mg/kg, 24 h prior to MCh): 79%; reduction of eosinophil infiltration into the BALF ([4]; single IV dose 10 mg/kg, 30 min. prior to MCh): 94%; reduction of eosinophil infiltration into the BALF ([4]; single IV dose 10 mg/kg, 24 h prior to MCh): 100%
Cc1cc(NS(C)(=O)=O)ccc1-n1c(CCC(=O)O)ccc1-c1ccc(-n2ccnc2C)s1 [Compound 171, 3-(5-(5-(2-methyl-1H-imidazol-1-yl)thiophen-2-yl)-1-(2-methyl-4-(methyl-sulfonamido)-phenyl)-1H-pyrrol-2-yl)propanoic acid]	efficacious	78.7 ± 8.1%	63%	–	–	–	–
